In patent US20150045301A1, “METHODS AND USES OF ANP (ATRIAL NATRIURETIC PEPTIDE), BNP (BRAIN NATRIURETIC PEPTIDE) AND CNP (C-TYPE NATRIURETIC PEPTIDE)-RELATED PEPTIDES AND DERIVATIVES THEREOF FOR TREATMENT OF RETINAL DISORDERS AND DISEASES” (KALOS Therapeutics, Inc., priority 2011, published 2015):
Where “and” joins values, the source holds several entries; their conditions need not be identical. Equal entries are not always repeated. Entries after “also recorded” stand apart in the source; their conditions may differ.

Tests used:
[1] = test system: cancer cells; assay: Anti-cancer activity of peptides with the conserved motif (cell proliferative assay); format: cell-based; conditions: statement in the description
Source text: This example describes activity of peptides having a conserved motif and conserved amino acids predicted to be functional in the motif. (Table III). This example also describes additional exemplary peptide sequences having a conserved motif predicted to have activity (Table IV). Notations “Res 1, Res 2” etc., herein refer by single letter abbreviation the amino acid in the exemplary peptide 8-mer. “Activity” can be determined by a cell proliferative assay, such as an assay described herein or known to one of skill in the art. Of course, peptides exemplified in Table IV can include the conserved motif peptide as part of a larger protein. The SEQ ID NO is the same as the peptide number. Each of these exemplary peptides can be analyzed in vitro, ex vivo, and in vivo for anti-cell proliferative activity using an assay, such as a cell based in vitro assay described in Examples 1 or 4.

[2] = test system: Human Pancreatic Adenocarcinoma Cells (HPAC); assay: HPAC cell viability / anti-cell proliferative assay (Calbiochem Rapid Cell Proliferation Kit, OD 450 nm); format: cell-based; conditions: 48 hours; for Optical Densities in 96_Well Plate, Average: average of 5 wells; for Optical Densities in 96_Well Plate, single well: one of 5 replicate wells
Description: Human Pancreatic Adenocarcinoma Cells (HPAC) cells were obtained from ATCC and propagated in Dulbecco's modified Eagle's medium and Ham's F12 medium (DME-F12) (1:1) containing 2.5 mM glutamine, […], 5 ug/mL transferrin, 1 ng/mL EGF (epidermal growth factor), plus 5% FBS (fetal bovine serum). Cell cultures were incubated at 37° C., 5% CO2 in a 100% humidity atmosphere. The cells were routinely brought to confluence in T-flasks, rinsed with phosphate buffered saline(PBS), and treated with trypsin for 5 min at room temp. The trypsinized cells were rinsed from the plate with 10 mL medium and counted. Viability at subculturing was generally ≧95%.
Approximately 10,000 cells in 100 uL of medium were placed in each well of a 96-well plate and incubated over night. Peptides having the following sequences were used: Arg-15-Cys (RSSCAGAALSPLGAC); Pro-15-Val (PNEEAGAALSPLPEV); Ala-8-Leu (AGALSPL); C-ANP 4-23 ([…]) and, VDL ([…]). The peptides were dissolved in PBS and sterile filtered. The peptides were diluted into the cell culture medium to the following final concentrations: 1, 0.3, 0.1, 0.03, and 0.01 uM. Each peptide was tested in 5 replicate wells. The cultures were incubated for an additional 48 hours at 37° C.
The viability of the cells was determined using a Calbiochem Rapid Cell Proliferation Kit (catalog number QIA127). Ten uL of Calbiochem color reagent was added to each well and incubated for an additional 1.5 hours at 37° C. Optical densities were read at 450 nm using a Molecular Devices ThermoMax microplate reader. The plate template is shown in Table I (unlabeled wells contained cells but no peptide and were used as blanks). Results are presented in Table I, and are graphically illustrated in FIGS. 1 and 2.

[3] = test system: cancer cells; conditions: comparison between natriuretic peptides, Vesely 2008; cited from earlier work
[4] = molecular target: T1, NPRC (Homo sapiens, UniProt P17342); conditions: comparison between natriuretic peptides, Vesely 2008; cited from earlier work
T1 sequence (P17342 27-541): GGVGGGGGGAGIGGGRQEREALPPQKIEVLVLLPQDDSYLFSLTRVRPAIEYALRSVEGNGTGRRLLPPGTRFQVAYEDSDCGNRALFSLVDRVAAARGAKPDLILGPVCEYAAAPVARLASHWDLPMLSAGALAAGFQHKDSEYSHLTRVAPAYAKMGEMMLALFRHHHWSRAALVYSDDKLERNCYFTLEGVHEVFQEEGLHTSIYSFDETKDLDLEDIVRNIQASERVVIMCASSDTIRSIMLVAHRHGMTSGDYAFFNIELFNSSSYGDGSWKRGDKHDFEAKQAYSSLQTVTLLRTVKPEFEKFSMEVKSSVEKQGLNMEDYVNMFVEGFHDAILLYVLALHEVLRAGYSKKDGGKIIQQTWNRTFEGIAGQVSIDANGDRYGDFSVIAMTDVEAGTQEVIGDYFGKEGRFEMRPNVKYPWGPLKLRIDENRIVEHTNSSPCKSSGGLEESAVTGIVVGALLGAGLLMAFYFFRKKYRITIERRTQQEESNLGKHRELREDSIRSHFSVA

[5] = test system: Human RPE cells (ARPE-19); assay: Transepithelial electrical resistance (TEER) of RPE cell layer treated with VEGF; format: cell-based; conditions: ARPE-19 cell layer
[6] = molecular target: T2, NPRA (Homo sapiens, UniProt P16066); conditions: comparison between natriuretic peptides, Vesely 2008; cited from earlier work
T2 sequence (P16066 33-1061): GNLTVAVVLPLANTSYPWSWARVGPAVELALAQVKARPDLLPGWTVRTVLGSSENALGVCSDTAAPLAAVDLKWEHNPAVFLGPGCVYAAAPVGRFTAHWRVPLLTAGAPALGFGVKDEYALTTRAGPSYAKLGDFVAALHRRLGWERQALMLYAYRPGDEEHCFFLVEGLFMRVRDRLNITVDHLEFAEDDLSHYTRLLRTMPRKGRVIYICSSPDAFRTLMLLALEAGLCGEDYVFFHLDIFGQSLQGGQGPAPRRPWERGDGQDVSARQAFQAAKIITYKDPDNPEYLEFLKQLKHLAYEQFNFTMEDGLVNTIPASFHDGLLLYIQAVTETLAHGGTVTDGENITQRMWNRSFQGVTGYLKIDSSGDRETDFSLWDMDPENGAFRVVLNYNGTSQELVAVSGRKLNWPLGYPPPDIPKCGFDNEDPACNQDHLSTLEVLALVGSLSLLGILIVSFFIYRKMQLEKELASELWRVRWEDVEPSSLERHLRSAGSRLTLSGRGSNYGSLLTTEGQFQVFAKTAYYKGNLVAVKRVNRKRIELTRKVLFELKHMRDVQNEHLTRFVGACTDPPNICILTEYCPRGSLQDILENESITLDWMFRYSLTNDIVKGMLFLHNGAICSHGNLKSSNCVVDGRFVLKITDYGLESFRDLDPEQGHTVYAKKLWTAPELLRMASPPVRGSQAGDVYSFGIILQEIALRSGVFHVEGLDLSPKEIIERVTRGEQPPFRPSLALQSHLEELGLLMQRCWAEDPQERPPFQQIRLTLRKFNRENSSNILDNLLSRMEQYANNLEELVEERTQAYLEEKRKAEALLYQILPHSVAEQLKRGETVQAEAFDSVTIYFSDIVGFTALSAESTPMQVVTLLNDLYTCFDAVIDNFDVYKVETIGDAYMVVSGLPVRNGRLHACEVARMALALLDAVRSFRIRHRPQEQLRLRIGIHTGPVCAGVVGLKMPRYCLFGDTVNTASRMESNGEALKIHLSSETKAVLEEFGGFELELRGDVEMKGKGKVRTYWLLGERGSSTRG

Substance | Activity of peptides sharing the conserved motif [1] | Optical Densities in 96_Well Plate, Average ([2]; peptide 0.01 μM) | Optical Densities in 96_Well Plate, single well ([2]; peptide 0.01 μM) | Optical Densities in 96_Well Plate, Average ([2]; peptide 0.03 μM) | Optical Densities in 96_Well Plate, single well ([2]; peptide 0.03 μM) | Optical Densities in 96_Well Plate, Average ([2]; peptide 0.1 μM) | Optical Densities in 96_Well Plate, single well ([2]; peptide 0.1 μM) | Optical Densities in 96_Well Plate, Average ([2]; peptide 0.3 μM) | Optical Densities in 96_Well Plate, single well ([2]; peptide 0.3 μM) | Optical Densities in 96_Well Plate, Average ([2]; peptide 1.0 μM) | Optical Densities in 96_Well Plate, single well ([2]; peptide 1.0 μM) | Relative potency of NPs [3] | Relative binding affinity at NPRC [4] | Effect on VEGF-induced decrease in trans-epithelial electrical resistance (TEER) ([5]; concurrent treatment with VEGF 10 ng/ml, ANP luM) | Relative binding affinity at NPRA [6] | Effect on transepithelial electrical resistance (TEER) ([5]; VEGF 10 ng/ml)
BNP: brain natriuretic peptide; motif in Table III FGKRMDRI | have activity | – | – | – | – | – | – | – | – | – | – | – | – | – | – | –
KP: ANP-related peptide; motif in Table III LKSKLRAL (SSDRSALLKSKLRALLTAPR; Kaliuretic peptide; UniProt P01160 104-123, looked up) | have activity | – | – | – | – | – | – | – | – | – | – | – | – | – | – | –
EVVPPQVLSEPNEEAGAALSPLPEVPPWTGEVSPAQR [KT-220 (VDL), vessel dilator VDL] | have activity | – | – | – | – | – | – | – | – | – | – | – | – | – | – | –
RSSCAGAALSPLGAC [Arg-15-Cys] | – | 0.934 | 0.974 and 0.920 and 0.863 and 0.840 and 1.075 | 0.982 | 1.093 and 0.894 and 0.789 and 0.955 and 1.178 | 0.950 | 1.016 and 0.917 and 0.801 and 0.990 and 1.025 | 0.897 | 0.988 and 0.957 and 0.668 and 0.913 and 0.959 | 0.962 | 1.155 and 1.005 and 0.787 and 0.944 and 0.919 | – | – | – | – | –
RSSCFGGRIDRIGAC [C-ANP 4-23, the ANP analog, reference compound] | have activity | 0.938 | 0.877 and 0.971 and 0.953 and 0.932 and 0.958 | 0.932 | 0.905 and 0.882 and 0.981 and 0.948 and 0.943 | 0.942 | 0.758 and 1.027 and 0.983 and 0.960 and 0.982 | 0.942 | 0.840 and 0.928 and 1.035 and 0.975 and 0.932 | 0.925 | 0.865 and 0.925 and 0.900 and 0.955 and 0.981 | – | – | – | – | –
CNP: C-type natriuretic peptide; motif in Table III FGLKLDRI | have activity; also recorded: less active than ANP, LANP, KP or VDL | – | – | – | – | – | – | – | – | – | – | greater potency of CNP than BNP | higher binding affinity than BNP specifically at NPRC | – | – | –
ANP: atrial natriuretic peptide; Table III sequence SLRRSSCFGGRMDRIGAQSGLGCNSFRY [reference compound] | have activity | 0.908 | 0.981 and 0.815 and 0.822 and 0.965 and 0.955 | 0.935 | 0.948 and 0.882 and 0.911 and 0.951 and 0.982 | 0.838 | 0.884 and 0.889 and 0.907 and 0.862 and 0.650 | 0.974 | 1.001 and 0.889 and 0.837 and 0.934 and 1.209 | 0.914 | 1.018 and 0.819 and 0.954 and 0.829 and 0.951 | greater potency observed for ANP than CNP | higher binding affinities at NPRA and NPRC | attenuated the effect of VEGF; also recorded: This decrease is attenuated by ANP | higher binding affinities at NPRA and NPRC | –
VEGF | – | – | – | – | – | – | – | – | – | – | – | – | – | – | – | lowered resistance
PNEEAGAALSPLPEV [Pro-15-Val] | – | 0.916 | 0.907 and 0.905 and 0.633 and 1.209 and 0.928 | 0.894 | 0.892 and 0.765 and 0.693 and 1.151 and 0.970 | 0.918 | 0.680 and 0.895 and 0.893 and 1.156 and 0.964 | 0.916 | 0.875 and 0.817 and 0.855 and 1.024 and 1.010 | 0.948 | 0.856 and 0.752 and 0.802 and 1.083 and 1.248 | – | – | – | – | –
LANP: ANP-related peptide; motif in Table III FKNLLDHL (NPMYNAVSNADLMDFKNLLDHLEEKMPLED; Long-acting natriuretic peptide; UniProt P01160 26-55, looked up) | have activity | – | – | – | – | – | – | – | – | – | – | – | – | – | – | –
AGALSPL [Ala-8-Leu, 8-mer conserved motif peptide] | – | 0.937 | 0.744 and 0.878 and 1.000 and 0.892 and 1.169 | 0.976 | 0.892 and 0.937 and 0.989 and 0.921 and 1.139 | 0.991 | 0.832 and 1.006 and 1.031 and 0.910 and 1.174 | 1.002 | 0.784 and 0.802 and 0.998 and 1.357 and 1.070 | 0.985 | 0.732 and 1.216 and 0.954 and 0.834 and 1.189 | – | – | – | – | –
